Where no end group is shown, it is not given here.
Columns and labels:
V. atypica PK1910 = type: cell-based, Veillonella atypica
Method: (§1) S. mutans clinical isolates UA140 (32), UA159 (1), T8 (33), ATCC 25175, GS5 (Kuramitsu and Ingersoll (1977) Infect Immun., 17: 330-337), and all gram-positive strains listed below (see Table 9) were grown under anaerobic conditions in brain heart infusion or Todd-Hewitt (TH) broth (Difco) overnight at 37° C. prior to use (Eckert et al. (2006) Antimicrob. Agents Chemother. 50: 3651-3657). Veillonella atypica PK1910 was grown in Veillonella medium (Egland et al. (2004) Proc. Natl. Acad. Sci., USA, 101: 16917-16922). All strains were grown in an anaerobic atmosphere of 80% N2, 10% CO2, and 10% H2.
(§2) Antibacterial growth inhibition assays were performed using sterile 96-well plates in a final volume of 100 μl, TH or Veillonella medium as described previously (Qi et al. (2005) FEMS Microbial Lett. 251: 321-326). Briefly, bacterial cells were grown overnight to an optical density at 600 nm of 0.75 to 0.8 (corresponding to 1×10^8 CFU/ml) and then diluted to 1×10^5 CFU/ml in broth and aliquoted onto plates. An appropriate volume of peptide stock solution (5 to 20 mg/ml, in water or methanol, depending on solubility) was then added to the first column of the plate to give 500 μg/ml or 512 μg/ml, followed by serial 1:2 dilutions across the plate to give wells containing peptides ranging from 500 to 1.95 μg/ml or 512 to 2 μg/ml. Methanol alone was also added to control for the effects of the solvent. The plates were then incubated at 37° C. under anaerobic conditions for 16 to 20 h without shaking, and the MIC was determined as the concentration of peptide present in the last clear well after visual inspection. Up to 5% (vol/vol) methanol was found not to be antimicrobial (data not shown). MICs were determined in triplicate for all bacteria.

S. mitis ATCC 903 = type: cell-based, Streptococcus mitis
Method: as §1, §2

S. sanguinis NY101 = type: cell-based, Streptococcus sanguinis
Method: as §1, §2

S. gordonii Challis DL1 = type: cell-based, Streptococcus gordonii
Method: as §1, §2

[1] = system: clinical isolates of S. mutans; type: cell-based, Streptococcus mutans; conditions: for MIC / MIC (fusion library peptides) / MIC S. mutans: clinical isolates of
Method: as §1, §2

L. casei ATCC 4646 = type: cell-based, Lactobacillus casei
Method: as §1, §2

P. aeruginosa = test: MIC against P. aeruginosa; type: cell-based, Pseudomonas aeruginosa

Substance | MIC V. atypica PK1910 (V. atypica PK1910) [µg/mL] | MIC S. mitis ATCC 903 (S. mitis ATCC 903) [µg/mL] | MIC S. sanguinis NY101 (S. sanguinis NY101) [µg/mL] | MIC S. gordonii Challis DL1 (S. gordonii Challis DL1) [µg/mL] | MIC L. casei ATCC 4646 (L. casei ATCC 4646) [µg/mL] | also measured
IKQLLHFFQRF-NH2 [Peptide B-38, IKQLLHFFQRF*] | 64 | 64 | 64 | 32 | 32 | activity against S. mutans by MIC, in words [1]: active but to a lesser degree than B-33 or B-34; MIC [1]: 24 µg/mL
FHFFHHFFHFFHHFKLLK [AA-5, FHFFHHFFHFFHHFKLLK] |  |  |  |  |  | MIC pH 4.9 (S. mutans): 28.125 μM; MIC pH 7.4 (S. mutans): >125 μM
LKRFLKWFKRFGGGRWRWRWF-NH2 [FBRW-16, LKRFLKWFKRF-GGG-RWRWRWF*] | 8 | 64 | 16 | 64 | 16 | MIC (fusion library peptides) [1]: 4 to 16 µg/mL
RWRWRWF-NH2 [Peptide 2C-4, RWRWRWF*] | 64 | 32 | 32 | 32 | 32 | MIC [1]: 4 to 8 µg/mL
RWRRLLKKLHHLLH-NH2 [α-11, RWRRLLKKLHHLLH*] | 4 | 32 | 16 | 16 | 16 | MIC [1]: 8 µg/mL
HHFFHHFHHFFHHF-NH2 [AA-1, HHFFHHFHHFFHHF*] |  |  |  |  |  | MIC pH 4.9 (S. mutans): 12.5 μM; MIC pH 7.4 (S. mutans): >125 μM
LYHFLHWFQRF [AA-7, LYHFLHWFQRF] |  |  |  |  |  | MIC pH 4.9 (S. mutans): >50 μM; MIC pH 7.4 (S. mutans): 125 μM
IKQLLHFFQRFGGGRWRWRWF-NH2 [FBRW-15, IKQLLHFFQRF-GGG-RWRWRWF*] | 8 | 64 | 16 | 32 | 16 | MIC (fusion library peptides) [1]: 4 to 16 µg/mL
RWRWRWFGGGLKRFLKWFKRF-NH2 [FBRW-24, RWRWRWF-GGG-LKRFLKWFKRF*] | 16 | 64 | 16 | 32 | 8 | MIC (fusion library peptides) [1]: 8 µg/mL
RWRRLLKKLHHLLHGGGFKKFWKWFRRF-NH2 [FBα-20, RWRRLLKKLHHLLH-GGG-FKKFWKWFRRF*] | 8 | 32 | 16 | 16 | 8 | MIC (fusion library peptides) [1]: 4 to 8 µg/mL
FKKFWKWFRRFGGGRWRWRWF-NH2 [FBRW-14, FKKFWKWFRRF-GGG-RWRWRWF*] | 8 | 64 | 16 | 32 | 8 | MIC (fusion library peptides) [1]: 4 to 16 µg/mL
KLLKGATFHFFHHFFHFFHHF [AA-3] |  |  |  |  |  | MIC pH 4.9 (S. mutans): 6.25 μM; MIC pH 7.4 (S. mutans): >125 μM
FKKFWKWFRRF-NH2 [Peptide B-33, FKKFWKWFRRF*] | 16 | 32 | 32 | 32 | 32 | MIC [1]: 8 to 24 µg/mL
LRLRHRVLF [Peptide S3L8-37, LRLRHRVLF] |  |  |  |  |  | MIC L. casei (L. casei): >62.5 µg/mL; MIC E. faecalis (E. faecalis): >125 µg/mL; MIC P. aeruginosa (P. aeruginosa): >125 µg/mL; MIC S. mutans [1]: >125 µg/mL; MIC S. aureus (S. aureus): >125 µg/mL
LKRFLKWFKRF-NH2 [Peptide B-34, LKRFLKWFKRF*] | 32 | 64 | 16 | 32 | 16 | MIC [1]: 8 to 24 µg/mL
VFRHRFIHRHVF [Peptide S3L8-19, VFRHRFIHRHVF] |  |  |  |  |  | MIC L. casei (L. casei): >62.5 µg/mL; MIC E. faecalis (E. faecalis): >125 µg/mL; MIC P. aeruginosa (P. aeruginosa): >125 µg/mL; MIC S. mutans [1]: >125 µg/mL; MIC S. aureus (S. aureus): >125 µg/mL
LRLFLRF [Peptide S3L8-43, LRLFLRF] |  |  |  |  |  | MIC L. casei (L. casei): >62.5 µg/mL; MIC E. faecalis (E. faecalis): >125 µg/mL; MIC P. aeruginosa (P. aeruginosa): >125 µg/mL; MIC S. mutans [1]: >125 µg/mL; MIC S. aureus (S. aureus): >125 µg/mL
RWRWRWFGGGFKKFWKWFRRF-NH2 [FBRW-22, RWRWRWF-GGG-FKKFWKWFRRF*] | 8 | 64 | 8 | 16 | 8 | MIC (fusion library peptides) [1]: 4 to 8 µg/mL
FHYFWHWFHRF [AA-6, FHYFWHWFHRF] |  |  |  |  |  | MIC pH 4.9 (S. mutans): >50 μM; MIC pH 7.4 (S. mutans): 125 μM
FKFLFKFLF [Peptide S3L8-38, FKFLFKFLF] |  |  |  |  |  | MIC L. casei (L. casei): 32 µg/mL; MIC E. faecalis (E. faecalis): >125 µg/mL; MIC P. aeruginosa (P. aeruginosa): >125 µg/mL; MIC S. mutans [1]: >125 µg/mL; MIC S. aureus (S. aureus): >125 µg/mL
LRLFLRHRF [Peptide S3L8-41, LRLFLRHRF] |  |  |  |  |  | MIC L. casei (L. casei): >62.5 µg/mL; MIC E. faecalis (E. faecalis): 62.5 µg/mL; MIC P. aeruginosa (P. aeruginosa): >125 µg/mL; MIC S. mutans [1]: 16 µg/mL; MIC S. aureus (S. aureus): >125 µg/mL
LILKFLFKFVF [Peptide S3L8-32, LILKFLFKFVF] |  |  |  |  |  | MIC L. casei (L. casei): 16 µg/mL; MIC E. faecalis (E. faecalis): 16 µg/mL; MIC P. aeruginosa (P. aeruginosa): >125 µg/mL; MIC S. mutans [1]: 31 µg/mL; MIC S. aureus (S. aureus): 16 µg/mL

Source: patent US8609608B2, “Antimicrobial peptides” (C3 Jian, Inc., priority 2007, dated 2013)
